According to patent publication US4372953A, “Tetrazole derivatives, and anti-ulcer composition containing the same” (Otsuka Pharmaceutical Company, Limited, priority 1980, dated 1983):
Where two headings read alike, the source gives them in different places.

What was measured:
stress ulcer = experiment: Stress ulcer (restraint and water immersion); assay type: in vivo, male Wistar rats; conditions: Rattus norvegicus, po, 7 h, read-out: Inhibitory ratio of stress ulcer; for inhibition in vivo: concentration of 1×10^-3 mole
Protocol: After male Wistar rats weighing about 170 g was fasted for 24 hours, the rats were restrained in a stress cage and dipped in water bath at 23° C. till chest of the animals. After 7 hours, the rats were killed and the stomach was isolated. Into the isolated stomach 10% formalin (8 ml) was poured and settled. The stomach was cut open at the greater curvature, and the length of each ulcer on the membrane was measured. Sum of the length of all ulcers was shown as ulcer index (UI). The test compound was orally administered to the rats before restraint in a stress cage in a dose of 300 mg/kg in the form of 0.5% CMC suspension in case of test compounds 3, 4, 6, 15 and 27 and in a concentration of 1×10^-3 mole in case of other test compounds. As a control, only the solvent (CMC solution) was administered likewise. The inhibitory ratio (%) of stress ulcer of the test compounds was calculated by the following equation: [formula]
(§1) In the table, the inhibitory ratio (%) was evaluated as follows: […]

gastric juice secretion = experiment: Shay rat pylorus ligation method (gastric juice secretion-inhibiting activity); assay type: in vivo, male Wistar rats; conditions: 100 mg/kg, 4 hours after ligation; for inhibition in vivo at 100 mg/kg: Rattus norvegicus, 4 h
Protocol: The pharmacological activities of the compounds (1) were tested by a Shay rat pylorus ligation method (cf. H. Shay et al: Gastroenterol., Vol. 5, page 43, 1945) which is the most popular method for testing of gastric juice secretion-inhibiting activity. The test was carried out by using male Wistar rats, weighing about 170 g and fasting for 24 hours.
Test compounds were administered 30 minutes before the pylorus ligation in a dose of 100 mg/kg in subcutaneous route in case of test compounds 37, 38, 50, 51 and 52, in a dose of 200 mg/kg in subcutaneous route in case of test compounds 105 and 106 and in dose of 100 mg/kg in duodenal route in case of other test compounds, and the volume, total acidity and pepsin activity of the gastric juice were measured 4 hours after the ligation. As a control, a saline solution was administered instead of the test compound. The inhibitory ratio (%) of the test compounds were calculated when the inhibitory activities of the control were counted as zero (0).
as §1

[1] = duodenal route, read-out: Inhibitory ratio, volume of gastric juice
[2] = sc, subcutaneous route, read-out: Inhibitory ratio, pepsin activity
[3] = sc, subcutaneous route, read-out: Inhibitory ratio, total acidity
[4] = sc, subcutaneous route, read-out: Inhibitory ratio, volume of gastric juice

Structure (SMILES) | inhibition in vivo (stress ulcer) [%] | inhibition in vivo at 100 mg/kg (gastric juice secretion; [1]) [%] | also measured
Cc1nnc(SCCCSc2nnnn2C)n1C [Test compound 15, 1-Methyl-5-[3-(4,5-dimethyl-1,2,4-triazol-3-yl)thiopropyl]thio-1,2,3,4-tetrazole] |  |  | inhibition in vivo at 300 mg/kg (stress ulcer; 300 mg/kg, 0.5% CMC suspension): > 60%
Cc1nnnn1CCCC(=O)N1CCOCC1 [Test compound 117, 5-Methyl-1-(3-morpholinocarbonylpropyl)-1,2,3,4-tetrazole] | 30 to 60 |  | 
Cc1ncsc1C(=O)CCCSc1nnnn1C [Test compound 80, 1-Methyl-5-[3-(4-methyl-5-thiazolyl)carbonylpropyl]thio-1,2,3,4-tetrazole] | > 60 | > 50 | 
Cn1nnnc1SCCCSc1nc2ccccc2[nH]1 [Test compound 19, 1-Methyl-5-[3-(2-benzimidazolyl)thiopropyl]thio-1,2,3,4-tetrazole] |  | 10 to 50 | 
Cn1nnnc1SCCCSCc1ccco1 [Test compound 21, 1-Methyl-5-[3-(2-furyl)methylthiopropyl]thio-1,2,3,4-tetrazole] |  | > 50 | 
Cn1nnnc1SCCCSCc1ccccn1 [Test compound 23, 1-Methyl-5-[3-(2-pyridyl)methylthiopropyl]thio-1,2,3,4-tetrazole] |  | 10 to 50 | 
Cc1ccnc(SCCCSc2nnnn2C)n1 [Test compound 13, 1-Methyl-5-[3-(4-methyl-2-pyrimidyl)thiopropyl]thio-1,2,3,4-tetrazole] |  | > 50 | 
Cn1nnnc1SCCCCCCSc1nnnn1C [Test compound 36, 1-Methyl-5-[6-(1-methyl-1,2,3,4-tetrazol-5-yl)thiohexyl]thio-1,2,3,4-tetrazole] | > 60 |  | Inhibitory ratio, volume of gastric juice (gastric juice secretion; duodenal route): + +
Cn1nnnc1[S+]([O-])CCCCSc1ccccn1 (stereo not shown) [Test compound 45, 1-Methyl-1,2,3,4-tetrazol-5-yl 4-(2-pyridyl)thiobutyl sulfoxide] | > 60 |  | 
Cn1nnnc1SCCCS(=O)(=O)c1ccccn1 [Test compound 48, 3-(1-Methyl-1,2,3,4-tetrazol-5-yl)thiopropyl 2-pyridyl sulfone] |  | 10 to 50 | 
Cn1nnnc1SCCCCC(=O)c1ccccc1 [Test compound 71, 1-Methyl-5-(4-benzoylbutyl)thio-1,2,3,4-tetrazole] |  | 10 to 50 | 
Cn1nnnc1SCCCSc1ccncc1 [Test compound 25, 1-Methyl-5-[3-(4-pyridyl)thiopropyl]thio-1,2,3,4-tetrazole] | > 60 |  | 
Cc1nnnn1CCCC(=O)N1CCN(C)CC1 [Test compound 112, 5-Methyl-1-[3-(4-methyl-1-piperazinylcarbonyl)propyl]-1,2,3,4-tetrazole] | > 60 |  | 
Cn1nnnc1SCCCSc1ccccn1 [compound 2] | > 60 |  | inhibition in vivo at 100 mg/kg (gastric juice secretion; duodenal route, star-marked compounds, read-out: Inhibitory ratio, pepsin activity): 30 to 60%; inhibition in vivo at 100 mg/kg (gastric juice secretion; duodenal route, star-marked compounds, read-out: Inhibitory ratio, total acidity): > 60%; inhibition in vivo at 100 mg/kg (gastric juice secretion; duodenal route, star-marked compounds, read-out: Inhibitory ratio, volume of gastric juice): > 60%
CC(=O)N(C)CCCSc1nnnn1C [Test compound 83, 1-Methyl-5-[3-(N-methyl-N-acetylamino)propyl]thio-1,2,3,4-tetrazole] | > 60 |  | 
Cn1nnnc1SCCCCS(=O)(=O)c1nnnn1C [Test compound 47, 4-(1-Methyl-1,2,3,4-tetrazol-5-yl)thiobutyl 1-methyl-1,2,3,4-tetrazol-5-yl sulfone] |  | > 50 | 
Cn1nnnc1SCc1ccccn1 [Test compound 98, 1-Methyl-5-(2-pyridylmethyl)thio-1,2,3,4-tetrazole] |  | > 50 | 
Cn1nnnc1SCCCCSc1nc2ccccc2c(=O)[nH]1 [Test compound 29, 1-Methyl-5-[4-(4-oxo-3,4-dihydroquinazolin-2-yl)thiobutyl]thio-1,2,3,4-tetrazole] |  | 10 to 50 | 

Structure (SMILES) | inhibition in vivo (stress ulcer) [%] | inhibition in vivo at 100 mg/kg (gastric juice secretion; [1]) [%] | also measured
COc1ccc(CCNC(=O)CCCn2nnnc2C)cc1OC [Test compound 114, N-[2-(3,4-Dimethoxyphenyl)ethyl]-4-(5-methyl-1,2,3,4-tetrazol-1-yl)butyramide] | 30 to 60 |  | 
Cn1nnnc1SCCCSc1ccc([N+](=O)[O-])cn1 [Test compound 40, 1-Methyl-5-[3-(5-nitro-2-pyridyl)thiopropyl]thio-1,2,3,4-tetrazole] | > 60 |  | 
Cn1nnnc1SCCCCCSc1ccccn1 [Test compound 32, 1-Methyl-5-[5-(2-pyridyl)thiopentyl]thio-1,2,3,4-tetrazole] |  | 10 to 50 | 
Cn1nnnc1SCCCCSc1ccccc1 [Test compound 28, 1-Methyl-5-(4-phenylthiobutyl)thio-1,2,3,4-tetrazole] |  | 10 to 50 | 
Cc1nnc(SC(C)CCSc2nnnn2C)o1 (stereo not shown) [Test compound 42, 1-Methyl-5-[3-methyl-3-(5-methyl-1,3,4-oxadiazol-2-yl)thiopropyl]thio-1,2,3,4-tetrazole] | > 60 |  | 
CC(CC[S+]([O-])c1nnnn1C)Sc1nnnn1C (stereo not shown) [Test compound 49, 1-Methyl-1,2,3,4-tetrazol-5-yl 3-methyl-3-(1-methyl-1,2,3,4-tetrazol-5-yl)thiopropyl sulfoxide] | > 60 |  | 
COc1ccc(C(=O)CCCSc2nnnn2C)cc1 [Test compound 63, 1-Methyl-5-[3-(4-methoxybenzoyl)propyl]thio-1,2,3,4-tetrazole] |  | 10 to 50 | 
CCC(=O)CCCSc1nnnn1C [Test compound 50, 1-Methyl-5-(3-propionylpropyl)thio-1,2,3,4-tetrazole] |  |  | inhibition in vivo at 100 mg/kg (gastric juice secretion; [2]): > 50%; inhibition in vivo at 100 mg/kg (gastric juice secretion; [3]): > 50%; inhibition in vivo at 100 mg/kg (gastric juice secretion; [4]): > 50%
Cn1nnnc1SCCSc1nnnn1C [Test compound 35, 1-Methyl-5-[2-(1-methyl-1,2,3,4-tetrazol-5-yl)thioethyl]thio-1,2,3,4-tetrazole] |  |  | Inhibitory ratio, volume of gastric juice (gastric juice secretion; duodenal route): + +
CCN(CCCSc1nnnn1C)C(=O)C1CCCC1 [Test compound 92, 1-Methyl-5-[3-(N-ethyl-N-cyclopentylcarbonylamino)propyl]thio-1,2,3,4-tetrazole] |  | 10 to 50 | 
c1ccc(-n2nnnc2SCCCSc2nnnn2-c2ccccc2)cc1 [Test compound 38, 1-Phenyl-5-[3-(1-phenyl-1,2,3,4-tetrazol-5-yl)thiopropyl]thio-1,2,3,4-tetrazole] |  |  | inhibition in vivo at 100 mg/kg (gastric juice secretion; [2]): 10 to 50%; inhibition in vivo at 100 mg/kg (gastric juice secretion; [3]): 10 to 50%; inhibition in vivo at 100 mg/kg (gastric juice secretion; [4]): 10 to 50%
Cn1nnnc1SCCCSc1ccccc1 [Test compound 10, 1-Methyl-5-(3-phenylthiopropyl)thio-1,2,3,4-tetrazole] |  | 10 to 50 | 
Cn1nnnc1SCCCSc1ccc2ccccc2n1 [Test compound 18, 1-Methyl-5-[3-(2-quinolyl)thiopropyl]thio-1,2,3,4-tetrazole] |  | 10 to 50 | 
Cn1nnnc1SCCCNC(=O)C1CCCCC1 [Test compound 81, 1-Methyl-5-(3-cyclohexylcarbonylaminopropyl)thio-1,2,3,4-tetrazole] |  | 10 to 50 | inhibition in vivo at 100 mg/kg (gastric juice secretion; duodenal route, read-out: Inhibitory ratio, pepsin activity): 10 to 50%; inhibition in vivo at 100 mg/kg (gastric juice secretion; duodenal route, read-out: Inhibitory ratio, total acidity): 10 to 50%
Cn1nnnc1SCCCSc1nnnn1C [Test compound 37, 1-Methyl-5-[3-(1-methyl-1,2,3,4-tetrazol-5-yl)thiopropyl]thio-1,2,3,4-tetrazole] |  |  | inhibition in vivo at 100 mg/kg (gastric juice secretion; [2]): > 50%; inhibition in vivo at 100 mg/kg (gastric juice secretion; [3]): > 50%; inhibition in vivo at 100 mg/kg (gastric juice secretion; [4]): > 50%
Cn1ccnc1SCCCSc1nnnn1C [Test compound 11, 1-Methyl-5-[3-(1-methylimidazol-2-yl)thiopropyl]thio-1,2,3,4-tetrazole] |  | > 50 | 
CCCCOc1ccc(C(=O)CCCSc2nnnn2C)cc1 [Test compound 79, 1-Methyl-5-[3-(4-butoxybenzoyl)propyl]thio-1,2,3,4-tetrazole] | > 60 |  | 
Cn1nnnc1SCCCSCc1ccccc1 [Test compound 22, 1-Methyl-5-(3-benzylthiopropyl)thio-1,2,3,4-tetrazole] |  | > 50 | 
